Measurements from ChEMBL document CHEMBL3885861, “Open TG-GATES”.

Species on record: Rattus norvegicus
Experiment: Open TG-GATES - Regimen: Single
Type: toxicity, organism-based, Sprague-Dawley
Set-up: regimen Single, gender Male, age 6 weeks
Settings: in vivo, po, route gavage; for APTT / Bas / Eos / Fbg / Hb / Ht / Lym / MCV / Mono / PT / Plat / RBC / Ret / WBC / MCHC / Neu: tissue Blood; for ALP / ALT / AST / BUN / CRE / Ca / Cl / DBIL / GLC / IP / K / LDH / Na / PL / RALB / TBIL / TC / TG / TP / gamma-GTP: tissue Plasma
[1] = 0 mg/kg, 3 h, dose level Control
[2] = 0 mg/kg, 6 h, dose level Control
[3] = 0 mg/kg, 9 h, dose level Control
[4] = 0 mg/kg, 24 h, dose level Control

## O=C(O)c1cccnc1 [NIACIN]
[1]
  APTT: 24 s
  Bas: 0%
  Eos: 0.8%
  Fbg: 311.4 mg/dL
  Hb: 13.5 g/dL
  Ht: 40.1%
  Lym: 81.2%
  MCV: 63.7 fL
  Mono: 2.2%
  PT: 16.4 s
  Plat: 118.4 x10_4/uL
  RBC: 630 x10_4/ul
  Ret: 7.9%
  WBC: 80.3 x10_2/uL
  ALP: 1666.4 IU/L
  ALT: 44.8 IU/L
  AST: 68.6 IU/L
  BUN: 12.8 mg/dL
  CRE: 0.1 mg/dL
  Ca: 11 mg/dL
  Cl: 102.6 meq/L
  DBIL: 0 mg/dL
  GLC: 182.4 mg/dL
  IP: 9.1 mg/dL
  K: 4.2 meq/L
  LDH: 165 IU/L
  Na: 140.8 meq/L
  PL: 138.6 mg/dL
  RALB: 2.9 g/dL
  TBIL: 0.002 mg/dL
  TC: 80.8 mg/dL
  TG: 48.2 mg/dL
  TP: 5.7 g/dL
  gamma-GTP: 1.4 IU/L
[2]
  Bas: 0%
  Eos: 0.8%
  Fbg: 304 mg/dL
  Hb: 13.6 g/dL
  Ht: 40.5%
  Lym: 76.2%
  MCHC: 33.7%
  MCV: 62.9 fL
  Mono: 2.8%
  PT: 16.5 s
  Plat: 116.7 x10_4/uL
  RBC: 643.6 x10_4/ul
  Ret: 7.8%
  WBC: 105.2 x10_2/uL
  ALP: 1639.8 IU/L
  ALT: 37.8 IU/L
  AST: 72.2 IU/L
  BUN: 12.6 mg/dL
  CRE: 0.1 mg/dL
  Ca: 10.8 mg/dL
  Cl: 103.6 meq/L
  DBIL: 0 mg/dL
  GLC: 196.8 mg/dL
  IP: 9.5 mg/dL
  K: 4.3 meq/L
  LDH: 211.2 IU/L
  Na: 140.2 meq/L
  PL: 141 mg/dL
  RALB: 3 g/dL
  TBIL: 0.008 mg/dL
  TC: 79.2 mg/dL
  TG: 68.4 mg/dL
  TP: 5.5 g/dL
  gamma-GTP: 1 IU/L
[3]
  Bas: 0%
  Eos: 0.8%
  Fbg: 312.8 mg/dL
  Hb: 13 g/dL
  Ht: 39.1%
  Lym: 81.4%
  MCHC: 33.3%
  MCV: 62.3 fL
  Mono: 2.6%
  Neu: 13.8%
  Plat: 119.2 x10_4/uL
  RBC: 627.8 x10_4/ul
  Ret: 8%
  WBC: 95.1 x10_2/uL
  ALP: 1434.4 IU/L
  ALT: 38.4 IU/L
  AST: 70.6 IU/L
  BUN: 11.8 mg/dL
  CRE: 0.2 mg/dL
  Ca: 10.7 mg/dL
  Cl: 104 meq/L
  DBIL: 0.004 mg/dL
  GLC: 185.4 mg/dL
  IP: 9.4 mg/dL
  K: 4.2 meq/L
  LDH: 177.2 IU/L
  Na: 140.4 meq/L
  PL: 129 mg/dL
  RALB: 3 g/dL
  TBIL: 0.01 mg/dL
  TC: 74.4 mg/dL
  TG: 52.2 mg/dL
  TP: 5.5 g/dL
  gamma-GTP: 1.2 IU/L
[4]
  Bas: 0%
  Eos: 1%
  Fbg: 327.2 mg/dL
  Hb: 13.2 g/dL
  Ht: 39.3%
  Lym: 81.2%
  MCHC: 33.6%
  MCV: 63.3 fL
  Mono: 2.6%
  Neu: 14%
  PT: 16.1 s
  Plat: 120.2 x10_4/uL
  RBC: 621.2 x10_4/ul
  Ret: 7.5%
  WBC: 115.4 x10_2/uL
  ALP: 1844 IU/L
  ALT: 45 IU/L
  AST: 70 IU/L
  BUN: 15.6 mg/dL
  CRE: 0.2 mg/dL
  Ca: 10.6 mg/dL
  Cl: 104.2 meq/L
  DBIL: 0 mg/dL
  GLC: 197.2 mg/dL
  IP: 8.2 mg/dL
  K: 4.3 meq/L
  LDH: 200 IU/L
  Na: 140.4 meq/L
  PL: 147.6 mg/dL
  RALB: 3 g/dL
  TBIL: 0.002 mg/dL
  TC: 74.6 mg/dL
  TG: 104 mg/dL
  TP: 5.5 g/dL
  gamma-GTP: 1.4 IU/L
100 mg/kg, 3 h, dose level Low
  APTT: 22.6 s
